{"source": "paper PMC9388626", "about": "“STUB1 is an intracellular checkpoint for interferon gamma sensing” (Scientific Reports, 2022)", "key": {"[1]": {"test_system": "PC-3 cells", "experiment": "Growth inhibition, CellTiter-Glo 2.0 (ATP)", "type": "cell-based, human", "details": "PC-3 (prostate), 10 ng ml^−1 each, 6 days", "description": "(§1) Parental and CRISPR-edited tumour cells were seeded in a cell density of 1800 (DU145), 2000 (PC-3), or 10,000 (MCF7) per well in 96-well CellCarrier plate (PelkinElmer, #6005550) filled with 50 µl culture media + 10% FBS. After 20–24 h incubation, the cells were treated with 10 ng ml^−1 of recombinant human IFNγ (R&D Systems, 285-IF-100), 10 ng ml^−1 of recombinant human TNFα (R&D Systems, 210-TA-020/CF) or a combination of both, by adding an equal volume of the complete culture media containing the cytokines. After incubating for 6 days without media change, the CellTiter-Glo 2.0 (Promega, G9243) or CellTiter-Fluor (Promega, G6082) assay were performed according to manufacturer’ instructions. The luminescence or fluorescence (Ex: 380–400 nm, Em: 505 nm) were detected by Inifinte M1000 PRO (Tecan). For CellTiter-Fluor, triplicate wells without cells were included to determine background fluorescence and the signal average was used for background substraction."}, "[2]": {"test_system": "DU145 cells", "experiment": "Growth inhibition, CellTiter-Glo 2.0 (ATP)", "type": "cell-based, human", "details": "DU145 (prostate), 10 ng ml^−1 each, 6 days", "description": "as §1"}, "[3]": {"test_system": "MCF7 cells", "experiment": "Growth inhibition, CellTiter-Fluor (live-cell protease activity)", "type": "cell-based, human", "design": "scale not given here", "details": "10 ng ml-1 each, 6-day", "description": "as §1"}, "[4]": {"test_system": "PC-3 cells", "experiment": "Growth inhibition, CellTiter-Fluor (live-cell protease activity)", "type": "cell-based, human", "design": "scale not given here", "details": "10 ng ml-1 each, 6-day", "description": "as §1"}, "[5]": {"test_system": "DU145 cells", "experiment": "Growth inhibition, CellTiter-Fluor (live-cell protease activity)", "type": "cell-based, human", "design": "scale not given here", "details": "10 ng ml-1 each, 6-day", "description": "as §1"}, "[6]": {"test_system": "B16-F10 cells", "experiment": "Validation of monoclonal Stub1-knockout lines (Western, ICE CRISPR analysis)", "type": "cell-based, murine", "details": "single clone from Stub1-knockout B16-F10 cells", "description": "Tumour cells were genetically edited by electroporating the Cas9/crRNA/tracrRNA or Cas9/sgRNA ribonucleoprotein (RNP) complexes into cells using the 4D-nucleofector system (Lonza). To prepare the guide RNA complex, a 1:1 mixture of Alt-R crRNA and tracrRNA (50 µM each, IDT) in nuclease-free duplex buffer (IDT) was heated at 95 °C for 5 min, followed by cooling to room temperature. The crRNA/tracrRNA complex or the sgRNA (150 pmol) was mixed with Alt-R S.p. HiFi Cas9 Nuclease V3 (100 pmol, IDT, #1081060), and the resulting mixture was incubated at room temperature for 10 min to form the final RNP complexes which were used immediately. In parallel, the harvested tumour cells were rinsed with PBS. After re-suspending in 20 µl nucleofactor solution (Lonza), the cell suspension was added to the final RNP complexes (4.6 µl) in microcentrifuge tube. The resulting cell suspension was transferred to a designated well of nucleocuvette strip which was then pulsed with the nucleofector system using a preset program. After pulsing, culture media (75 µl) was added and the cell suspension was transferred to a designated well of a 12-well plate filled with 1.0 ml culture media. After 48 h incubation, the CRISPR-edited B16-F10 were subcloned by limiting dilution. The monoclonal cell lines were validated by Western blotting and analyzing the Sanger sequencing results of the PCR amplicon (~ 800 bp) flanking the crRNA-targeted site using ICE v2 CRISPR analysis tool (Synthego). For CT26, the cells were sorted for the top 50th percentile of IFNGR1-high population using BD FACSAria to enrich for the Stub1-null cells (Supplementary Fig. 10a). Human tumour cells, e.g., DU145, PC-3 and MCF7, were used right after the CRISPR editing. Sorting or subcloning was not applied to the human cell lines, since these lines were studied for a brief period in in vitro setting. Loss of STUB1 protein in the human cell lines was confirmed by Western blot analysis."}}, "data": [{"substance": "IFNγ", "values": [{"measurement": "Growth inhibition of PTPN2- or STUB1-null cells", "setting": "[1]", "value": "sensitized PTPN2- or STUB1-null prostate tumour cells to growth inhibition"}, {"measurement": "Growth inhibition of PTPN2- or STUB1-null cells", "setting": "[2]", "value": "sensitized PTPN2- or STUB1-null prostate tumour cells to growth inhibition"}, {"measurement": "FC in live-cell protease activity relative to parental cells", "setting": "[3]; MCF7 PTPN2 sgRNA, replicate 1", "value": -0.23}, {"measurement": "FC in live-cell protease activity relative to parental cells", "setting": "[3]; MCF7 PTPN2 sgRNA, replicate 2", "value": -0.32}, {"measurement": "FC in live-cell protease activity relative to parental cells", "setting": "[3]; MCF7 PTPN2 sgRNA, replicate 3", "value": -0.34}, {"measurement": "FC in live-cell protease activity relative to parental cells", "setting": "[3]; MCF7 Parental, replicate 1", "value": 0.0179}, {"measurement": "FC in live-cell protease activity relative to parental cells", "setting": "[3]; MCF7 Parental, replicate 2", "value": 0.0179}, {"measurement": "FC in live-cell protease activity relative to parental cells", "setting": "[3]; MCF7 Parental, replicate 3", "value": -0.0365}, {"measurement": "FC in live-cell protease activity relative to parental cells", "setting": "[3]; MCF7 STUB1 sgRNA, replicate 1", "value": -1.31}, {"measurement": "FC in live-cell protease activity relative to parental cells", "setting": "[3]; MCF7 STUB1 sgRNA, replicate 2", "value": -1.18}, {"measurement": "FC in live-cell protease activity relative to parental cells", "setting": "[3]; MCF7 STUB1 sgRNA, replicate 3", "value": -1.16}, {"measurement": "FC in live-cell protease activity relative to parental cells", "setting": "[3]; MCF7 control sgRNA, replicate 1", "value": -0.0449}, {"measurement": "FC in live-cell protease activity relative to parental cells", "setting": "[3]; MCF7 control sgRNA, replicate 2", "value": 0.05}, {"measurement": "FC in live-cell protease activity relative to parental cells", "setting": "[3]; MCF7 control sgRNA, replicate 3", "value": 0.01}, {"measurement": "FC in live-cell protease activity relative to parental cells", "setting": "[4]; PC-3 PTPN2 sgRNA, replicate 1", "value": -0.90}, {"measurement": "FC in live-cell protease activity relative to parental cells", "setting": "[4]; PC-3 PTPN2 sgRNA, replicate 2", "value": -0.39}, {"measurement": "FC in live-cell protease activity relative to parental cells", "setting": "[4]; PC-3 PTPN2 sgRNA, replicate 3", "value": -0.44}, {"measurement": "FC in live-cell protease activity relative to parental cells", "setting": "[4]; PC-3 Parental, replicate 1", "value": 0.02}, {"measurement": "FC in live-cell protease activity relative to parental cells", "setting": "[4]; PC-3 Parental, replicate 2", "value": -0.11}, {"measurement": "FC in live-cell protease activity relative to parental cells", "setting": "[4]; PC-3 Parental, replicate 3", "value": 0.09}, {"measurement": "FC in live-cell protease activity relative to parental cells", "setting": "[4]; PC-3 STUB1 sgRNA, replicate 1", "value": -0.57}, {"measurement": "FC in live-cell protease activity relative to parental cells", "setting": "[4]; PC-3 STUB1 sgRNA, replicate 2", "value": -0.73}, {"measurement": "FC in live-cell protease activity relative to parental cells", "setting": "[4]; PC-3 STUB1 sgRNA, replicate 3", "value": -0.72}, {"measurement": "FC in live-cell protease activity relative to parental cells", "setting": "[4]; PC-3 control sgRNA, replicate 1", "value": 0.0759}, {"measurement": "FC in live-cell protease activity relative to parental cells", "setting": "[4]; PC-3 control sgRNA, replicate 2", "value": -0.0157}, {"measurement": "FC in live-cell protease activity relative to parental cells", "setting": "[4]; PC-3 control sgRNA, replicate 3", "value": -0.15}, {"measurement": "FC in live-cell protease activity relative to parental cells", "setting": "[5]; DU145 PTPN2 sgRNA, replicate 1", "value": -0.09}, {"measurement": "FC in live-cell protease activity relative to parental cells", "setting": "[5]; DU145 PTPN2 sgRNA, replicate 2", "value": -0.0242}, {"measurement": "FC in live-cell protease activity relative to parental cells", "setting": "[5]; DU145 PTPN2 sgRNA, replicate 3", "value": 0.13}, {"measurement": "FC in live-cell protease activity relative to parental cells", "setting": "[5]; DU145 Parental, replicate 1", "value": -0.028}, {"measurement": "FC in live-cell protease activity relative to parental cells", "setting": "[5]; DU145 Parental, replicate 2", "value": -0.0441}, {"measurement": "FC in live-cell protease activity relative to parental cells", "setting": "[5]; DU145 Parental, replicate 3", "value": 0.07}, {"measurement": "FC in live-cell protease activity relative to parental cells", "setting": "[5]; DU145 STUB1 sgRNA, replicate 1", "value": -0.68}, {"measurement": "FC in live-cell protease activity relative to parental cells", "setting": "[5]; DU145 STUB1 sgRNA, replicate 2", "value": -0.65}, {"measurement": "FC in live-cell protease activity relative to parental cells", "setting": "[5]; DU145 STUB1 sgRNA, replicate 3", "value": -0.52}, {"measurement": "FC in live-cell protease activity relative to parental cells", "setting": "[5]; DU145 control sgRNA, replicate 1", "value": 0.0364}, {"measurement": "FC in live-cell protease activity relative to parental cells", "setting": "[5]; DU145 control sgRNA, replicate 2", "value": 0.13}, {"measurement": "FC in live-cell protease activity relative to parental cells", "setting": "[5]; DU145 control sgRNA, replicate 3", "value": 0.0663}]}, {"substance": "gStub1 #1 (guide GCATTGCTAAGAAGAAGCGC; chemistry not given here)", "values": [{"measurement": "Comment (knock-out by Western blot and ICE analysis)", "setting": "[6]", "value": "complete knock-out as assessed by Western blot and ICE analysis"}, {"measurement": "Indel", "setting": "[6]", "value": "-12 -15"}, {"measurement": "Indel % (by Synthego ICE)", "setting": "[6]", "value": 93, "unit": "%"}]}]}
